Results from patent US20230272465A1, “Systems and Methods to Enhance RNA Transcription and Uses Thereof” (The Board of Trustees of the Leland Stanford Junior …, priority 2020, published 2023).
Entries after “also recorded” stand apart in the source; their conditions may differ.

Key:
Type in all cases: biochemical
SP6 RNA polymerase = target: T1, SP6 RNA polymerase (Enterobacteria phage SP6, UniProt P06221); assay: Real-time monitoring of SP6 RNA polymerase transcription reaction; settings: FIG. 1B
T1 sequence (P06221 1-874): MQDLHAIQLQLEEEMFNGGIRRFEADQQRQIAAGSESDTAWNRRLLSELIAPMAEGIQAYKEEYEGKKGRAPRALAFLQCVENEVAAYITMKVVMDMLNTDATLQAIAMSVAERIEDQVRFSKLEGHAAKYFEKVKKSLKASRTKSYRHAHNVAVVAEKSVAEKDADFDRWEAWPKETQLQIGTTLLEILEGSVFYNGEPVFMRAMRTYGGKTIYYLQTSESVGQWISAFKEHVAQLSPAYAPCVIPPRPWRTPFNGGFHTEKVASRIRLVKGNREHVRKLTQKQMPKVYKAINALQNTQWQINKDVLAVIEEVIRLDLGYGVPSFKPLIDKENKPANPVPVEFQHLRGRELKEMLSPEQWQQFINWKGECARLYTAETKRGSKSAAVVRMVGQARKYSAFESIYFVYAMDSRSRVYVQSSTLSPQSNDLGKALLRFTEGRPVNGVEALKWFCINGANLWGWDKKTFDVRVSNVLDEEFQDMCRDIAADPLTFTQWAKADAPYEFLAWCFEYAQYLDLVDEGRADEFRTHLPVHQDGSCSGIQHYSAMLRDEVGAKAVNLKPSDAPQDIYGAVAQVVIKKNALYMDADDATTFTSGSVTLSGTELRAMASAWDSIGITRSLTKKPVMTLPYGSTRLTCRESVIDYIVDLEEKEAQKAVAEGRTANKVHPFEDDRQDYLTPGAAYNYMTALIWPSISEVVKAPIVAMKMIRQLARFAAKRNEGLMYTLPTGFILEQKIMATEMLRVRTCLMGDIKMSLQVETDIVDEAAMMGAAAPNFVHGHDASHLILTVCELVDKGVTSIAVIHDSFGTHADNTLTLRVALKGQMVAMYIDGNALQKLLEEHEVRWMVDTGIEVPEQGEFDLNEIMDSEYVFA
Procedure: Turning to FIGS. 1A-1B, exemplary data of RNA yield measured from real time monitoring of RNA transcription reactions in accordance with certain embodiments are illustrated. In particular, FIG. 1A illustrates exemplary T7 RNA polymerase transcription reaction embodiments using 0.1 mM, 1 mM, and 10 mM concentrations of VRC against a 0 mM control.
However, FIG. 1B illustrates exemplary SP6 RNA polymerase transcription reaction embodiments using 0.1 mM, 1 mM, and 10 mM concentrations of VRC against a 0 mM control.

T7 RNA polymerase [1] = target: T2, T7 RNA polymerase (Escherichia phage T7, UniProt P00573); assay: RNA yield after post-reaction clean-up, T7 polymerase transcription (NanoDrop UV-Vis); settings: 37° C., 4 hours, FIG. 2
T2 sequence (P00573 whole entry): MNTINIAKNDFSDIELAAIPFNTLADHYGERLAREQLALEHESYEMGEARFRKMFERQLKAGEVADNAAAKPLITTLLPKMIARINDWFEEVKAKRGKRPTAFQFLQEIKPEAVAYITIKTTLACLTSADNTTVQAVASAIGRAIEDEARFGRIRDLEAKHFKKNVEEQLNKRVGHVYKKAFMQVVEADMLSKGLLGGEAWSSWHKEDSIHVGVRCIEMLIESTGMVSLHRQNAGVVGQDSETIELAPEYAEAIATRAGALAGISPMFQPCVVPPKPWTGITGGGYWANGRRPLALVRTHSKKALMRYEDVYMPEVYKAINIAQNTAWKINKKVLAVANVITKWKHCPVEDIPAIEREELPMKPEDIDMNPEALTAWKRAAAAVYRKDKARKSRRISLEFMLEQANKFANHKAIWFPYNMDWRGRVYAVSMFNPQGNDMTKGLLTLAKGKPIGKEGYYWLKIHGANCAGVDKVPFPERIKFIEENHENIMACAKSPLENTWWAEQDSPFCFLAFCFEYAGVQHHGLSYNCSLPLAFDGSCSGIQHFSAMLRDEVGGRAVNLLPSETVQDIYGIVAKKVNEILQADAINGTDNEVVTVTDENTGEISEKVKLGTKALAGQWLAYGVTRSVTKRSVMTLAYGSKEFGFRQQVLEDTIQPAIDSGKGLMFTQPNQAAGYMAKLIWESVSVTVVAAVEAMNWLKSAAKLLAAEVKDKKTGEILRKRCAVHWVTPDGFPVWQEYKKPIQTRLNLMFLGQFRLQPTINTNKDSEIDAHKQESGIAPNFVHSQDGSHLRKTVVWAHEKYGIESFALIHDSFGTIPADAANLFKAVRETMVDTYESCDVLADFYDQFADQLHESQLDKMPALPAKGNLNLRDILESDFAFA
Procedure: Methods: A series of standard RNA transcription reactions were performed using T7 polymerase spiked with 0 mM, 0.1 mM, 1 mM, and 10 mM VRC. The reaction was performed at 37° C. for 4 hours in a thermocycler. A post-reaction clean-up was used to remove any reagents, including enzymes, NTPs, buffers. The reaction was quantified using a NanoDrop UV-Vis spectrometer.

T7 RNA polymerase [2] = target: T2, T7 RNA polymerase; assay: Real-time RNA transcription reaction with T7 polymerase (fluorescence, TECAN plate reader); settings: 10 mM VRC, room temperature (~20° C.), 9000 seconds, FIG. 1A
Procedure: Methods: A series of standard RNA transcription reactions were performed using T7 polymerase spiked with 0 mM, 0.1 mM, 1 mM, and 10 mM VRC. The reaction was performed at room temperature (˜20° C.) for 9000 seconds in a TECAN plate reader. Reaction yield was measured in reach reaction by measuring fluorescence in real-time using the TECAN plate reader.

T7 RNA polymerase [3] = target: T2, T7 RNA polymerase; assay: Gel electrophoresis of T7 transcription reaction products; settings: 0.1 mM, 1 mM, 10 mM VRC versus 0 mM control; FIG. 3
Procedure: Methods: A series of standard RNA transcription reactions were performed using T7 polymerase spiked with 0 mM, 0.1 mM, 1 mM, and 10 mM VRC. Post-incubation, the contents of each reaction were electrophoresed on a gel to qualitatively identify reaction product sizes.

Which “RNA yield versus 0 mM control” value (SP6 RNA polymerase; 0.1 mM VRC) does the source give for ribonucleoside vanadyl complex [VRC] here?
The value was “no advantage in yield over the control”.

And the “RNA yield versus 0 mM control” value (SP6 RNA polymerase; 1 mM VRC)?
The value was “inhibition of SP6 RNA polymerase”.

What about the “RNA yield versus 0 mM control” value (SP6 RNA polymerase; 10 mM VRC) of the same substance?
Its value is “inhibition of SP6 RNA polymerase”.

What about the “increase in RNA yield over 0 mM control” value (T7 RNA polymerase [1]; 0.1 mM VRC) of the same substance?
The value was “approximately 2.3 fold”.

What about the “increase in RNA yield over 0 mM control” value (T7 RNA polymerase [1]; 1 mM VRC) of the same substance?
Its value is “approximately 1.7 fold”.

And the “increase in RNA yield over 0 mM control” value (T7 RNA polymerase [1]; 10 mM VRC)?
Its value is “approximately 1.5 fold”.

And the “increase in RNA yield over 0 mM control” value (T7 RNA polymerase [2])?
The value was about 1.5 fold.

And the “reaction product sizes / degradation products on gel” value (T7 RNA polymerase [3])?
Its value is “no degradation of products; also recorded: no discernable differences in product sizes”.
